Row | SMILES | melting point
1 | Cc1oc(-c2ccccc2)nc1COc1ccc(CCCO/N=C(\C(=O)O)c2ccccc2)cc1 [Example 2, Z-2-[3-[4-(5-methyl-2-phenyl-4-oxazolylmethoxy)phenyl]propoxyimino]-2-phenylacetic acid] | 165 to 166 °C (dec.)
2 | CN(CCOc1ccc(CO/N=C(\C(=O)O)c2ccccc2)cc1)c1ccccn1 [Example 3, Z-2-[4-[2-(methyl-2-pyridylamino)ethoxy]benzyloxyimino]-2-phenylacetic acid] | 93 to 94 °C
3 | Cc1oc(-c2ccccc2)nc1COc1ccc(CO/N=C(\Cc2ccccc2)C(=O)O)cc1 [Example 6, E-2-[4-(5-methyl-2-phenyl-4-oxazolylmethoxy)benzyloxyimino]-3-phenylpropionic acid] | 143 to 144 °C (dec.)
4 | CCCC/C(=N\OCc1ccc(OCc2nc(-c3ccccc3)oc2C)cc1)C(=O)O [Example 8, E-2-[4-(5-methyl-2-phenyl-4-oxazolylmethoxy)benzyloxyimino]hexanoic acid] | 112 to 114 °C
5 | C/C(=N\OCc1ccc(OCc2nc(-c3ccccc3)oc2C)cc1)C(=O)O [Example 9, E-2-[4-(5-methyl-2-phenyl-4-oxazolylmethoxy)benzyloxyimino]propionic acid] | 147 to 148 °C
6 | Cc1oc(-c2ccccc2)nc1COc1ccc(CO/N=C(\C(=O)O)c2cccc(Oc3ccccc3)c2)cc1 [Example 13, Z-2-[4-(5-methyl-2-phenyl-4-oxazolylmethoxy)benzyloxyimino]-2-(3-phenoxyphenyl)acetic acid] | 173 to 174 °C (dec.)
7 | Cc1oc(-c2ccccc2)nc1COc1ccc(CO/N=C(/C(=O)O)c2cccc(Oc3ccccc3)c2)cc1 [Example 14, E-2-[4-(5-methyl-2-phenyl-4-oxazolylmethoxy)benzyloxyimino]-2-(3-phenoxyphenyl)acetic acid] | 55 to 65 °C
8 | Cc1oc(-c2ccccc2)nc1COc1ccc(CO/N=C(\C(=O)O)c2ccc(F)cc2)cc1 [Example 15, Z-2-(4-fluorophenyl)-2-[4-(5-methyl-2-phenyl-4-oxazolylmethoxy)benzyloxyimino]acetic acid] | 182 to 183 °C (dec.)
9 | Cc1oc(-c2ccccc2)nc1COc1ccc(CO/N=C(/C(=O)O)c2ccc(F)cc2)cc1 [Example 16, E-2-(4-fluorophenyl)-2-[4-(5-methyl-2-phenyl-4-oxazolylmethoxy)benzyloxyimino]acetic acid] | 150 to 151 °C (dec.)
10 | Cc1oc(-c2ccccc2)nc1COc1ccc(CO/N=C(\CCCC(=O)O)c2ccccc2)cc1 [Example 18, E-5-[4-(5-methyl-2-phenyl-4-oxazolylmethoxy)benzyloxyimino]-5-phenylpentanoic acid] | 129 to 130 °C
11 | CCOC(=O)/C(=N\OCc1ccc(OCc2nc(-c3ccccc3)oc2C)cc1)c1ccc(OC)cc1 [Example 19, ethyl Z-2-(4-methoxyphenyl)-2-[4-(5-methyl-2-phenyl-4-oxazolylmethoxy)benzyloxyimino]acetate] | 102 to 103 °C
12 | CCOC(=O)/C(=N/OCc1ccc(OCc2nc(-c3ccccc3)oc2C)cc1)c1ccc(Br)cc1 [Example 22, ethyl E-2-(4-bromophenyl)-2-[4-(5-methyl-2-phenyl-4-oxazolylmethoxy)benzyloxyimino]acetate] | 105 to 106 °C
13 | COc1ccc(/C(=N/OCc2ccc(OCc3nc(-c4ccccc4)oc3C)cc2)C(=O)O)cc1 [Example 24, Z-2-(4-methoxyphenyl)-2-[4-(5-methyl-2-phenyl-4-oxazolylmethoxy)benzyloxyimino]acetic acid] | 183 to 184 °C
14 | Cc1oc(-c2ccccc2)nc1COc1ccc(CO/N=C(\C(=O)O)c2ccc(-c3ccsc3)cc2)cc1 [Example 30, Z-2-[4-(5-methyl-2-phenyl-4-oxazolylmethoxy)benzyloxyimino]-2-[4-(3-thienyl)phenyl]acetic acid] | 205 to 206 °C (dec.)
15 | Cc1oc(-c2ccccc2)nc1COc1ccc(CO/N=C(\C(=O)O)c2ccc(/C=C/c3ccccc3)cc2)cc1 [Example 31, Z-2-[4-(5-methyl-2-phenyl-4-oxazolylmethoxy)benzyloxyimino]-2-[4-(E-2-phenylethenyl)phenyl]acetic acid] | 194 to 195 °C (dec.)
16 | Cc1oc(-c2ccccc2)nc1COc1ccc(CO/N=C(\C(=O)O)c2cccnc2)cc1 [Example 35, Z-2-[4-(5-methyl-2-phenyl-4-oxazolylmethoxy)benzyloxyimino]-2-(3-pyridyl)acetic acid] | 156 to 157 °C (dec.)
17 | Cc1oc(-c2ccccc2)nc1COc1ccc(CO/N=C(/C(=O)O)c2cccnc2)cc1 [Example 37, E-2-[4-(5-methyl-2-phenyl-4-oxazolylmethoxy)benzyloxyimino]-2-(3-pyridyl)acetic acid] | 130 to 131 °C (dec.)
18 | Cc1oc(-c2ccccc2)nc1COc1ccc(CO/N=C(\C(=O)O)c2cccc(C(=O)c3ccccc3)c2)cc1 [Example 40, Z-2-(3-benzoylphenyl)-2-[4-(5-methyl-2-phenyl-4-oxazolylmethoxy)benzyloxyimino]acetic acid] | 185 to 186 °C (dec.)
19 | Cc1oc(-c2ccccc2)nc1COc1ccc(CO/N=C(\C(=O)O)c2cccc(Br)c2)cc1 [Example 43, Z-2-(3-bromophenyl)-2-[4-(5-methyl-2-phenyl-4-oxazolylmethoxy)benzyloxyimino]acetic acid] | 181 to 182 °C (dec.)
20 | CCOC(=O)CC/C(=N\OCc1ccc(OCc2nc(-c3ccccc3)oc2C)cc1)c1ccc(Oc2ccccc2)cc1 [Example 46, ethyl E-4-[4-(5-methyl-2-phenyl-4-oxazolylmethoxy)benzyloxyimino]-4-(4-phenoxyphenyl)butyrate] | 118 to 119 °C
21 | Cc1oc(-c2ccccc2)nc1COc1ccc(CO/N=C(\CCC(=O)O)c2ccc(Oc3ccccc3)cc2)cc1 [Example 47, E-4-[4-(5-methyl-2-phenyl-4-oxazolylmethoxy)benzyloxyimino]-4-(4-phenoxyphenyl)butyric acid] | 131 to 132 °C
22 | COC(=O)CC/C(=N\OCc1ccc(OCCc2nc(-c3ccccc3)oc2C)cc1)c1ccccc1 [Example 48, methyl E-4-[4-[2-(5-methyl-2-phenyl-4-oxazolyl)ethoxy]benzyloxyimino]-4-phenylbutyrate] | 73 to 74 °C
23 | Cc1oc(-c2ccccc2)nc1CCOc1ccc(CO/N=C(\CCC(=O)O)c2ccccc2)cc1 [Example 50, E-4-[4-[2-(5-methyl-2-phenyl-4-oxazolyl)ethoxy]benzyloxyimino]-4-phenylbutyric acid] | 106 to 107 °C
24 | CN(CCOc1ccc(CO/N=C(\CCC(=O)O)c2ccccc2)cc1)c1ncccn1 [Example 51, E-4-[4-[2-(methyl-2-pyrimidylamino)ethoxy]benzyloxyimino]-4-phenylbutyric acid] | 72 to 73 °C
25 | Cc1oc(-c2ccccc2)nc1COc1ccc(CON=C(CC(=O)O)c2ccccc2)cc1 [Example 53, 3-[4-(5-methyl-2-phenyl-4-oxazolylmethoxy)benzyloxyimino]-3-phenylpropionic acid] | 107 to 108 °C
26 | O=C(O)CC/C(=N\OCc1ccc(OCc2cn3c(Cl)cccc3n2)cc1)c1ccccc1 [Example 55, E-4-[4-(5-chloroimidazo[1,2-a]pyridin-2-ylmethoxy)benzyloxyimino]-4-phenylbutyric acid] | 160 to 161 °C

From US6924300B2, “Oxyiminoalkanoic acid derivatives” (Takeda Chemical Industries, Ltd., priority 1998, dated 2005)
